These are literature values, as cited in US11096912B2, “Valaciclovir and celecoxib combination for functional somatic syndromes” (INNOVATIVE MED CONCEPTS, LLC, priority 2012, dated 2021).

This data set relates to fibromyalgia patients. To be noted: valacyclovir alone; J. Rheumatology (2004) 31, 783-784.

Consider `CC(C)[C@H](N)C(=O)OCCOCn1cnc2c(=O)[nH]c(N)nc21` [valacyclovir], for which the “treatment of fibromyalgia patients” value is reported as “not successful”.
